The values below come from patent US7605280B2, “Anthraquinone and its derivatives” (Biostatus Limited, priority 1998, dated 2009).

Each structure is given as a SMILES string. Values joined by “and” are separate entries in the source; they are usually repeats but may differ in a detail not shown here. Equal entries are not always repeated. A value given as a limit tells only on which side of the number the result lay.

The nature of one data set: Solubility. The data set is classed as physicochemical.
Another data set concerns SUD4 cells. Briefly: FACScan (Cytometer C) flow cytometric analysis of DRAQ5-labelled cells. Format: cell-based, human. The method, then: HL60 (human promyelocytic-leukaemia cell line) and SUD4 (human B cell lymphoma cell line) were grown as suspension cultures-in-RMPI medium with 10% foetal calf serum, 1 mM glutamine and antibiotics and incubated at 37° C. in an atmosphere of 5% CO2 in air. For flow cytometry experiments, asynchronously growing suspension cultures were diluted to 2.5-4>10^5 cells/ml at 2 h prior to drug treatment. Cell cycle-perturbed populations were obtained by treating SUD4 cells with the drug etoposide (VP-16-213) at 0.25 μM for 18h. Cells were treated with DRAQ5 and FDA as described above. Cell concentrations were determined using a Coulter counter and cell cycle distribution determined using an algorithm for the normal distibution of fluorescence intensity profiles for fluorochrome stained G1 and G2 cells.
Suspension cultures were analysed by flow cytometry without washing. Human blood was obtained using routine venepuncture of a healthy donor and samples manipulated using standard haematological procedures for the isolation of mononuclear blood cells and surface antigen recognition using antibody panels (see Table 1).
Cells were analysed using one of four flow cytometers according to the excitation requirements. • Cytometer A: Single beam high power 647 nm krypton laser excitation: The system was a custom-built cytometer and incorporated an Innova 3000K krypton laser (Coherent Corp., Palo Alto, Calif., USA) tuned to the 647 nm line. Forward light scatter, 90° light scatter and fluorescence emissions were collected for 1×10^4 cells using the 90° light scatter parameter as the master signal. The optical system permitted the analysis of various fluorescence emission wavelengths including: >715 nm (termed low infra-red) and, as reported here >780 nm fluorescence (infra-red ). Forward and 90° light scatter were analysed for the identification of cell debris. Laser power was set at 200 mW and linear amplifiers were used for the fluorescence signals. The analysis optics included a 675 nm cold dichroic mirror, ambient laboratory temperature was approximately 12° C. and the sheath reservoir was maintained at 10° C. Filters were supplied by Melles Griot. Median, mean and mode parameters were calculated for the distribution of fluorescence intensity-values throughout a given cell population. In all experiments, median and mean values produced very similar results. Median values alone are reported since this parameter is less affected by the presence of highly fluorescent cells beyond the upper limit for quantification. • Cytometer B: Dual beam low power 633 nm/high power 488 nm laser excitation: The system was a FACS 440 cell sorter (Becton Dickinson Inc., Cowley, UK) incorporating a Spectra Physics argon ion laser (max 500 mW output), tuned to the 488 nm line (100 mW output), and a secondary Spectra Physics 156 helium-neon laser emitting at 633 nm (emitting <5 mW), with a temporal beam separation of about 30 μsec. Forward light scatter, 90° light scatter and fluorescence emissions were collected for 1×10^4 cells using the forward light scatter parameter as the master signal from the primary 488 nm beam, while side scatter was collected through a 488/10 nm band-pass filter. The analysis optics included: i) a cold dichroic mirror (transmitting >675 nm), ii) fluorescence from fluorescein excited by the 488 nm beam detected at a PMT guarded by a 535/15 nm band-pass filter with no signal delay, and iii) a red-sensitive PMT with an appropriate delay, additionally guarded by a 620 nm long-pass filter, to detect the transmitted beam of DRAQ5-associated fluorescence at wavelengths beyond 675 nm (high-red and extending into the infra red region of the spectrum) Forward and 90° light scatter were analysed to exclude any cell debris. All parameters were acquired at 256 channel resolution with Consort 30 software (Becton Dickinson) and subsequently analysed with WinMDI software (J. Trotter, La Jolla, Calif.). […]

Take `CN(C)CCNc1ccc(O)c2c1C(=O)c1c(O)ccc(NCCN(C)C)c1C2=O` [DRAQ5]: in “Solubility”, the solubility entry was “soluble in biologically compatible solvents including water”. Moreover, the “DRAQ5 concentration at which staining saturates” value in the data set with SUD4 cells (5 min at room temperature, SUD4, lymphocytes, monocytes (FIG. 8)) was not below 10 µM. In the data set with SUD4 cells (Preparation 1, VP-16 arrested versus asynchronous cells), the “increase of mean fluorescence for G2 arrested populations” value amounted to 1.7 fold. Moreover, the “Mean fluorescence intensity (±sd) of gated population” value in the data set with SUD4 cells (Preparation 1, 20 μM DRAQ5, 120 min, FL3) was 645.1 ± 177.7; with SUD4 cells (Preparation 1, cells pretreated 0.25 μM VP-16 × 18 h, 20 μM DRAQ5, 5 min) it was 891.8 ± 126.4; with SUD4 cells (Preparation 1 viable cultured cells, 20 μM DRAQ5, 5 min, FL3), 499.4 ± 143.3 and 532.4 ± 148.3; in the data set with SUD4 cells (Preparation 2, cells pretreated 0.25 μM VP-16, 20 μM DRAQ5, 5 min), 902.7 ± 117.1; in the data set on SUD4 cells (Preparation 2 surface antigen analysis, 20 μM DRAQ5, 5 min) it was 564.3 ± 147.2.
